Assays:
Enterovirus 3C protease = experiment: Enterovirus assay in clinical CSF samples (vs RT-PCR); type: biochemical; conditions: bacterial samples 23-25; new assay conditions
Procedure: CSF samples obtained from two clinical sites, were tested for presence of enterovirus according to the method of the invention but before the assay conditions were optimized. The samples were also tested with a combination of RT-PCR and other clinical parameters. […] Samples were considered hemolytic if red blood cell (RBC) count was above 100/ul (for the one set) or if the sample's color was reddish (for the other set, RBC count not provided).
Samples whose reaction rate exceeded the cutoff value were considered positive, and those below this value were considered negative.
Each measurement was performed by using 50 uL of CSF sample. 5 ul of inhibitor cocktail (I8) was added to the samples and incubated for 2.5 min. The reaction was initiated by the addition of 50 uL 2× reaction buffer (“2× RB”, 50 mM HEPES pH7.5, 1.8M Na2SO4, 300 mM NaCl, 10% Glycerol, 10 mM EDTA and 10 mM EGTA each) containing the substrate camb2 (final concentration 2 uM).
Thaw samples at room temperature for 30 min in a biological hood. • 2. Prepare assay layout according to the number of samples to be run in the BMG fluorimeter and the well composition shown in Table 54
Prepare sufficient amount of inhibitor cocktail I10 (150 ul for 24 wells). • 4. […] Add Echo protease to p.c. (positive control) wells. • 6. […] Add inhibitor cocktail to all wells. • 8. Add 50 ul 2× RB+substrate to all the wells. • 9. […]

pneumococcus 6B = experiment: Pneumococcus 6B lysate spiking system (Camb2 cleavage); type: biochemical, Streptococcus pneumonia
Description: (§1) There have been no reports of co-infection of viral and bacterial meningitis. Thus, a test for viral meningitis infection implies a negative result for bacterial meningitis. However, CSF samples infected with bacterial meningitis may have background non-specific activity that leads to false positive results in tests for enterovirus, thereby confusing the results. Background non specific activity in CSF samples could be related to bacterial proteases that can cleave the substrate, leading to a positive signal. The most frequent bacterial meningitis found in CSF include: Streptococcus pneumonia, Neisseria meningitides (meningococc), Haemophilus influenza and Klebsiella pneumonia. Accordingly, Pneumococcus (Streptococcus pneumonia, two different strains 6B and 23F) and meningococcus (Neisseria meningitides) were spiked to simulate the background non specific activity observed in CSF samples and to identify inhibitors to reduce it. A total of more than 40 inhibitors from different groups of inhibitors were tested.
(§2) The experiment shown in FIG. 22A was performed in the presence of Echo recombinant protease (50 nM) or in the presence of two different strains of pneumococcus 6B and 23F (lysate 1 μl). The inhibitory effect was measured in the presence/absent of Phosphoramidon (20 uM).

pneumococcus 23F = experiment: Pneumococcus 23F lysate spiking system (Camb2 cleavage); type: biochemical, Streptococcus pneumonia
Description: as §1, §2

[1] = biological target: Echovirus 3C recombinant protease (Echovirus 30, UniProt Q9WN78); experiment: Echovirus 3C recombinant protease activity with inhibitors or inhibitor cocktails (Camb2); type: biochemical
Procedure: Phosphoramidon is a strong inhibitor of many bacterial Metalloendoproteinases, thermolysin, and elastase, but a weak inhibitor of collagenase. […] Phosphoramidon was tested using the Echovirus 3C recombinant and pneumococcus (types 6B and 23F) spiking systems.
as §2
The experiment shown in FIG. 22B was performed in the presence of Echo recombinant protease (1:18), in the presence of meningococcus (lysate 3 ul) or in the presence of blood (10 ul).
Enterovirus 3C protease (Echo), WBC lysate (corresponding to 2×10^3 cells per test), Pneomococc lysate (corresponding to 1×10^6 bacteria per test) and Meningococc lysate (corresponding to 1×10^8 bacteria per test) (5 ul each) were spiked into artificial-CSF (45 ul), followed by the addition of the indicated inhibitor cocktails (5 ul each): I8, I9a=I8+Phosphoramidon (90 μM), I9b=I8+2-6-pyridinedicarboxylic acid (2.5 mM) and I10=I8+Phosphoramidon+2-6-pyridinedicarboxylic acid. The samples with the indicated inhibitor cocktails were incubated at RT for 2.5 min followed by the addition of 50 ul 2× reaction buffer containing the substrate camb2 (final concentration 2 μM). […]

meningococcus = experiment: Meningococcus lysate spiking system (Camb2 cleavage); type: biochemical, Neisseria meningitides; conditions: 2,6-pyridinedicarboxylic acid 2.5 mM; lysate 3 ul
Description: as §1
The experiment shown in FIG. 22B was performed in the presence of Echo recombinant protease (1:18), in the presence of meningococcus (lysate 3 ul) or in the presence of blood (10 ul). […]

blood = conditions: 2,6-pyridinedicarboxylic acid 2.5 mM; blood 10 ul
[2] = Phosphoramidon 20 uM, lysate 1 μl
[3] = at least three independent experiments

Sequence of Echovirus 3C recombinant protease (Q9WN78 1550-1732): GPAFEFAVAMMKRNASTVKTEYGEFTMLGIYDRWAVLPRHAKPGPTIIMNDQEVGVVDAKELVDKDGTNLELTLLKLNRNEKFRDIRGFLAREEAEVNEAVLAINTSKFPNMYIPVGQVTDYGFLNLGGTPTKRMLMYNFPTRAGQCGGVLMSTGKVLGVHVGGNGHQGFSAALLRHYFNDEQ

Q: Which “effect on unspecific background activity of bacterial CSF samples” value (Enterovirus 3C protease) does the source give for CC(C)C[C@H](NP(=O)(O)O[C@@H]1O[C@@H](C)[C@H](O)[C@@H](O)[C@H]1O)C(=O)N[C@@H](Cc1c[nH]c2ccccc12)C(=O)O [Phosphoramidon] here?
A: could not abolish

Q: What about the “inhibition of pneumococcus activity” value (pneumococcus 6B; [2]) of the same compound?
A: 91%

Q: What about the “inhibition of pneumococcus activity” value (pneumococcus 6B; [3]) of the same compound?
A: ~90%

Q: What about the “inhibition of pneumococcus activity” value (pneumococcus 23F; [2]) of the same compound?
A: 80%

Q: And the “inhibition of pneumococcus activity” value (pneumococcus 23F; [3])?
A: ~90%

Q: And the inhibition at 20 µM ([1]; Phosphoramidon 20 uM, Echo recombinant protease 50 nM)?
A: 7%

Q: Which “inhibition of meningococcus activity” value (meningococcus) does the source give for O=C(O)c1cccc(C(=O)O)n1 [2,6-pyridinedicarboxylic acid] here?
A: 81%

Q: And the “inhibition of blood activity” value (blood)?
A: 0%

Q: And the inhibition at 2500 µM [1]?
A: 4.5%

From patent US20110306035A1, “Methods and Compositions for Detection of a Pathogen, Disease, Medical Condition, or Biomarker Thereof” (priority 2008, published 2011)
